EC50 data for 9 molecules are collected here from EP2601188B1, “HEPATITIS C VIRUS INHIBITORS” (Bristol-Myers Squibb Company, priority 2010, dated 2012).

The test has as its system HCV 1b genotype. As to the kind of experiment: HCV Replicon assay (HCV-neo replicon cells, wild-type). The test is classed as cell-based. The following applies: HCV 1b genotype replicon. The method, then: An HCV Replicon assay was utilized in the present disclosure, and was prepared, conducted and validated as described in commonly owned PCT/US2006/022197 and in O'Boyle et. al. Antimicrob Agents Chemother. 2005 Apr;49(4):1346-53. Assay methods incorporating luciferase reporters have also been used as described (Apath.com).
HCV-neo replicon cells and replicon cells containing mutations in the NS5A region were used to test the currently described family of compounds. The compounds were determined to have more than 10-fold less inhibitory activity on cells containing mutations than wild-type cells. Thus, the compounds of the present disclosure can be effective in inhibiting the function of the HCV NS5A protein and are understood to be as effective in combinations as previously described in application PCT/US2006/022197 and commonly owned WO/O4014852. Further, the compounds of the present disclosure can be effective against the HCV 1b genotype. It should also be understood that the compounds of the present disclosure can inhibit multiple genotypes of HCV. […] In one embodiment, compounds of the present disclosure are inhibitory versus 1a, 1b, 2a, 2b, 3a, 4a, and 5a genotypes.

Setting [1] is: Hepatitis C virus, class symbols, read-out: EC50 Range.
The mark [2] stands for this setting: Hepatitis C virus, values in nM, read-out: EC50.

Read-outs that look alike come from different tables or passages of the source.

Take `O=C(Nc1cccc(-c2ncc(-c3ccc4[nH]c([C@@H]5CCCN5C(=O)CC5CC5)nc4c3)o2)c1)[C@@H]1CCCN1C(=O)CC1CC1` [J.53, 1-(cyclopropylacetyl)-N-(3-(5-(2-((2S)-1-(cyclopropylacetyl)-2-pyrrolidinyl)-1H-benzimidazol-5-yl)-1,3-oxazol-2-yl)phenyl)-L-prolinamide]: the half-maximal effective concentration (EC50) under setting [1] is 100000 to 999000 pM. On the same count and under the same terms, the value for `O=C(Nc1cccc(-c2cnc(-c3ccc4[nH]c([C@@H]5CCCN5C(=O)CC5CC5)nc4c3)o2)c1)[C@@H]1CCCN1C(=O)CC1CC1` [J.53a, 1-(cyclopropylacetyl)-N-(3-(2-(2-((2S)-1-(cyclopropylacetyl)-2-pyrrolidinyl)-1H-benzimidazol-5-yl)-1,3-oxazol-5-yl)phenyl)-L-prolinamide] was 1e+06 to 1e+07 pM; that for `COC(=O)N[C@@H](C(=O)N1CCC[C@H]1c1nc(C#Cc2ccc(-c3ccc4[nH]c([C@@H]5CCCN5C(=O)[C@H](NC(=O)OC)C(C)C)nc4c3)cc2)c[nH]1)C(C)C` [JB.8.1, methyl ((1R)-1-(((2S)-2-(4-((4-(2-((2S)-1-((2R)-2-((methoxycarbonyl)amino)-3-methylbutanoyl)-2-pyrrolidinyl)-1H-benzimidazol-5-yl)phenyl)ethynyl)-1H-imidazol-2-yl)-1-pyrrolidinyl)carbonyl)-2-methylpropyl)carbamate] was 100000 to 999000 pM. Take `O=C([C@@H](c1ccccc1)N1CCCCC1)N1CCC[C@H]1c1nc(C#Cc2ccc(-c3ccc4[nH]c([C@@H]5CCCN5C(=O)[C@@H](c5ccccc5)N5CCCCC5)nc4c3)cc2)c[nH]1` [JB.12, 2-((2S)-1-((2R)-2-phenyl-2-(1-piperidinyl)acetyl)-2-pyrrolidinyl)-5-(4-((2-((2S)-1-((2R)-2-phenyl-2-(1-piperidinyl)acetyl)-2-pyrrolidinyl)-1H-imidazol-4-yl)ethynyl)phenyl)-1H-benzimidazole]: the EC50 (Hepatitis C virus, values given in pM, read-out: EC50) was 65.2 pM. In the case of `CC(=O)N1CCC[C@H]1C(=O)Nc1ccc(C#Cc2ccc3nc([C@@H]4CCCN4C(=O)Cc4ccccc4)[nH]c3c2)cc1` [M.8, (S)-1-acetyl-N-(4-((2-((S)-1-(2-phenylacetyl)pyrrolidin-2-yl)-1H-benzo[d]imidazol-6-yl)ethynyl)phenyl)pyrrolidine-2-carboxamide], the EC50 runs as follows: under setting [1], 4570 to 99000 pM; under setting [2], 46400 pM.

As to `O=C(Nc1ccc(C#Cc2ccc3nc([C@@H]4CCCN4C(=O)Cc4ccccc4)[nH]c3c2)cc1)[C@@H]1CCCN1C(=O)Cc1ccccc1` [M.9, (S)-1-(2-phenylacetyl)-N-(4-((2-((S)-1-(2-phenylacetyl)pyrrolidin-2-yl)-1H-benzo [d]imidazol-6-yl)ethynyl)phenyl)pyrrolidine-2-carboxamide], under setting [1], the concentration giving a half-maximal response (EC50) lay in the range of 4570 to 99000 pM. In the case of `CC(=O)N1CCC[C@H]1C(=O)Nc1ccc(CCc2ccc3nc([C@@H]4CCCN4C(=O)Cc4ccccc4)[nH]c3c2)cc1` [M.10, (S)-1-acetyl-N-(4-(2-(2-((S)-1-(2-phenylacetyl)pyrrolidin-2-yl)-1H-benzo[d]imidazol-6-yl)ethyl)phenyl)pyrrolidine-2-carboxamide], the EC50 under setting [1] lay within 100000 to 999000 pM and the EC50 under setting [2] stood at 202000 pM. As to `O=C(Nc1ccc(CCc2ccc3nc([C@@H]4CCCN4C(=O)Cc4ccccc4)[nH]c3c2)cc1)[C@@H]1CCCN1C(=O)Cc1ccccc1` [M.11, (S)-1-(2-phenylacetyl)-N-(4-(2-(2-((S)-1-(2-phenylacetyl)pyrrolidin-2-yl)-1H-benzo [d]imidazol-6-yl)ethyl)phenyl)pyrrolidine-2-carboxamide], the concentration for a half-maximal effect (EC50) under setting [1] lay in the range of 4570 to 99000 pM.

“(2R)-2-(dimethylamino)-N-(3-(5-(2-((2S)-1-((2R)-2-(dimethylamino)-2-phenylacetyl)-2-pyrrolidinyl)-1H-benzimidazol-5-yl)-1,3-oxazol-2-yl)phenyl)-2-phenylacetamide [J.48b]”: the 50% effective concentration (EC50) (class symbols, read-out: EC50 Range) is 4570 to 99000 pM.
